The values below come from patent US5004612A, “Pharmaceutical compositions comprising esters or amides as active ingredients” (priority 1987, dated 1991).

Read-outs that look alike come from different tables or passages of the source.

Series [1] in a line: Water solubility (remark on administration). Type of series: physicochemical.
Series [2] can be described thus: in vivo. Conditions: dog, plasma, po, read-out: BA. Also on record: species or system male Beagle dogs. The protocol: When Experiment 1 was carried out by using Compound A and D, blood was collected after a given period of time (0, 15, 30, 60 and 120 minutes after). The concentration of the active ingredient in blood was determined with high pressure liquid chromatography, and Area Under the plasma concentration-time Curve (AUC) was calculated and then bioavailability (BA) was calculated according to the following formula by comparing with AUC in intravenous administration. [formula] [AUCid]: AUC in intraduodenal administration [AUCiv]: AUC in intravenous administration
Each one soft capsule prepared in Reference Example 1, 2, 3, 4, 5 and 6 (used only a suspension of Example 2 (compound B) in Reference Example 4,5 and 6) was administered orally with 50 ml of water to six male Beagle dogs fasted an overnight (aged one to two and weighing 10±1 kg). By the same procedures as described in Experiment 2, the concentration of the active ingredient in blood, AUC, and then BA were calculated.
^1 Comparison: Compound A or Compound B (10 mg/5 ml) of water/kg
animal body weight) was orally administered.

Series [3] is described as follows: in vivo. Further details: species or system male Sprague-Dawley rats. As to conditions: rat, 5 mg/0.5 ml/animal, read-out: Remaining ratio of the active ingredient in small intestine; for remaining at 5 min: 5 minutes after; for remaining at 0.25 h: 15 minutes after. On the procedure:
The inhibitory effect of MCG on the degradation of esters of guanidinobenzoic acid in small intestine
(§1) The experiment was carried out according to the Yasuhara's method using intestinal loop in rats [see Journal of Pharmacobio-Dynamics, 2, 251 (1979)]. That is, male Sprague-Dawley rats weighing 220-260 g were fasted an overnight prior to surgery; however drinking water was readily accessible. The rats were anesthetized by sodium pentobarbital using an intraperitoneal injection of 50 mg/kg. The small intestine was exposed by a midline abdominal incision. The intestinal loop studied was used approximately 15 cm of the duodenal-jejunal site that was approximately 2 cm off the outlet of bile duct.
The suspension or solution containing active ingredients was directly administered into the loop and the both ends of the loop were closed. The experiment with Compound G and I was carried out further by adding pancreatic juice and bile of other rats into the loop by cannula. After a given period of time, the loop was cut out. The contents were washed out with physiological salt solution and/or ethanol, and thereto was added a mixture of 0.1N aqueous methanesulfonic acid, 1,2-dichloroethane and isopropanol. The obtained mixture was centrifuged and the resulting supernatant was used as a sample. In the case of Compound D to H, the washings were directly used as a sample. The active ingredient and the degradation products in sample were determined with high pressure liquid chromatography.
Compound A: p-(p-guanidinobenzoyloxy)phenylacetic acid N,N-dimethylcarbamoylmethyl ester methanesulfonate [drawing 2] Compound B: p-guanidinobenzoic acid 6-amidinonaphth-2-yl ester dimethanesulfonate [drawing 3] Compound C: p-guanidinobenzoic acid methyl ester methanesulfonate [drawing 4] Compound D: 7-(3-tosylaminobicyclo[2.2.1]heptan-2-yl)-5Z-heptenoic acid ethyl ester [drawing 5] Compound E: salicylic acid ethyl ester [drawing 6] Compound F: aspirin [drawing 7] Compound G: 6-keto-16S,18S-ethano-20-ethyl-PGE1 leucine amide [drawing 8] Compound H: N-[3-[N-(4-chlorobenzyl)carbamoyl]propanoyl]-L-prolinal [drawing 9] Compound I: 7-(3-tosylaminobicyclo[2.2.1]heptan-2-yl)-5Z-heptenoic acid glycine amide [drawing 10] (wherein G is a guanidino group.)
H2 O: dissolving in the ratio of 5 mg of active ingredient/0.5 ml of water/animal.
MCM8(glyceryl monocaprylate): suspending in the ratio of 5 mg of active ingredient/0.5 ml of MCM8/animal.
MCT8(glyceryl tricaprylate): suspending in the ratio of 5 mg of active ingredient/0.5 ml of MCT8/animal.
2. 0.5 ml of physiological salt solution (referred to "SALT") for Compound D instead of water, because of its water-insoluble character.
3. 0.1 mg of Compound G were used because of its strong pharmacological effect, and isotonic phosphate buffer solution (referred to "PHOS") (pH 6.5) instead of water was used because of its water-insoluble character.

Series [4] is described as follows: in vivo. Also on record: species or system male Sprague-Dawley rats. As to conditions: rat, BA. On the procedure: as §1
The suspension or solution containing active ingredients was directly administered into the loop and the both ends of the loop were closed. […] The active ingredient and the degradation products in sample were determined with high pressure liquid chromatography. […]
When Experiment 1 was carried out by using Compound A and D, blood was collected after a given period of time (0, 15, 30, 60 and 120 minutes after). The concentration of the active ingredient in blood was determined with high pressure liquid chromatography, and Area Under the plasma concentration-time Curve (AUC) was calculated and then bioavailability (BA) was calculated according to the following formula by comparing with AUC in intravenous administration. […]

Consider `CCOC(=O)CCC/C=C\CC1C2CCC(C2)C1NS(=O)(=O)c1ccc(C)cc1` (stereo not drawn) [Compound D, 7-(3-tosylaminobicyclo[2.2.1]heptan-2-yl)-5Z-heptenoic acid ethyl ester], for which, in series [1], the solubility in water entry is reported as “water-insoluble”.
As for `CS(=O)(=O)O.CS(=O)(=O)O.N=C(N)Nc1ccc(C(=O)Oc2ccc3cc(C(=N)N)ccc3c2)cc1` [Compound B, p-guanidinobenzoic acid 6-amidinonaphth-2-yl ester dimethanesulfonate], the bioavailability in “in vivo [2]” (10 mg/kg, Comparison B (10 mg/5 ml of water/kg body weight)) turned out to be 1.7 ± 1.2%; in “in vivo [2]” (Reference Example 4 (soft capsule of Example 2 suspension)), 3.2 ± 1.7%; in the series “in vivo [2]” (Reference Example 5 (enteric-coated soft capsule, as Reference Example 2)), 5 ± 2.5%; in “in vivo [2]” (Reference Example 6 (enteric-coated soft capsule, as Reference Example 3)), 5.1 ± 2.1%. The remaining at 5 min in “in vivo [3]” (H2O (COMPARISON)) turned out to be 68.8 ± 1.7%; in “in vivo [3]” (MCM8 (INVENTION)) it was 90 ± 15.6%; in “in vivo [3]” (MCT8 (INVENTION)), 80 ± 3.2%. Further, the remaining at 0.25 h turned out to be 27.5 ± 5.2% in the series “in vivo [3]” (H2O (COMPARISON)), 70.5 ± 12.1% in the series “in vivo [3]” (MCM8 (INVENTION)) and 60.8 ± 7.5% in the series “in vivo [3]” (MCT8 (INVENTION)).
Take `CCCC[C@H]1CC[C@H]([C@H](O)/C=C/[C@H]2[C@H](O)CC(=O)[C@@H]2CC(=O)CCCCC(=O)NC(CC(C)C)C(=O)O)C1` (stereo partly drawn) [Compound G, 6-keto-16S,18S-ethano-20-ethyl-PGE1 leucine amide]: the solubility in water result in series [1] is “water-insoluble”.
For the compound `CN(C)C(=O)COC(=O)Cc1ccc(OC(=O)c2ccc(NC(=N)N)cc2)cc1.CS(=O)(=O)O` [Compound A, p-(p-guanidinobenzoyloxy)phenylacetic acid N,N-dimethylcarbamoylmethyl ester methanesulfonate], the bioavailability in “in vivo [2]” (10 mg/kg, Comparison A (10 mg/5 ml of water/kg body weight)) worked out at 6.3 ± 2.4%; in the series “in vivo [2]” (Reference Example 1 (soft capsule of Example 1 suspension)), 10.9 ± 4.3%; in “in vivo [2]” (Reference Example 2 (enteric-coated soft capsule, carboxymethylethyl cellulose)), 18.4 ± 7.3%; in “in vivo [2]” (Reference Example 3 (enteric-coated soft capsule, hydroxypropylmethyl cellulose acetate succinate)) it was 17.2 ± 11.5%; in “in vivo [4]”, 3%.
As to `COC(=O)c1ccc(NC(=N)N)cc1.CS(=O)(=O)O` [Compound C, p-guanidinobenzoic acid methyl ester methanesulfonate], in series [1], the solubility in water result is reported as “poor solubility”.
